Laboratory results as given in article PMC4180209 (Arteriosclerosis, thrombosis, and vascular biology, 2014).
Like-named read-outs stand apart in the source and are kept apart here.

Experiments:
[1] = Plasma concentrations in hαIIb/mβ3 mice; type: in vivo; conditions: exception of an outlier value
[2] = molecular target: T1, murine αIIbβ3 (Mus musculus, UniProt O54890+Q9QUM0); experiment: Reactivity with murine platelets / inhibition of murine αIIbβ3; type: cell-based
[3] = Solubility in aqueous buffer; type: physicochemical
[4] = system: hαIIb/mβ3 mice; experiment: FeCl3 murine carotid artery thrombosis model; type: in vivo; conditions: for platelet counts: hαIIb/mβ3 mice
[5] = molecular target: T2, platelet αIIbβ3 (Homo sapiens, UniProt P05106+P08514); experiment: Priming platelet αIIbβ3 to bind fibrinogen; type: cell-based
[6] = molecular target: T1, murine αIIbβ3; conditions: 1 µM; cited from earlier work
[7] = molecular target: T3, αIIbβ3 (Homo sapiens, UniProt P05106+P08514); experiment: Adhesion of HEK293 cells expressing αIIbβ3 to fibrinogen; type: cell-based; conditions: for inhibition of binding of cells expressing αIIbβ3 to fibrinogen: HEK293 cells, RUC-2 100 µM, RUC-4 300 µM; for Specificity for αIIbβ3 vs αVβ3: αIIbβ3 cells to fibrinogen vs αVβ3 cells to vitronectin
[8] = system: human ADP-induced platelet aggregation; experiment: ADP-induced platelet aggregation in platelet-rich plasma; type: cell-based; conditions: read-out: IC50 ADP-induced platelet aggregation; 5 µM ADP; citrated platelet-rich plasma; n=8
[9] = system: platelets of mice expressing hαIIb/mβ3; experiment: ADP-induced platelet aggregation after dosing of hαIIb/mβ3 mice; type: in vivo
[10] = molecular target: αVβ3 (Homo sapiens, UniProt P05106+P06756); experiment: Adhesion of HEK293 cells expressing αVβ3 to vitronectin; type: cell-based; conditions: RUC-2 100 µM, RUC-4 300 µM
[11] = system: human ADP-induced platelet aggregation; conditions: cited from earlier work
[12] = molecular target: T3, αIIbβ3; experiment: Binding of ligand-induced binding site mAb AP5 to washed platelets; type: cell-based; conditions: for induction of increased binding of mAb AP5 (LIBS epitope in β3 PSI domain): eptifibatide 10 µM, RUC-2 100 µM, RUC-4 100 µM
[13] = molecular target: T2, platelet αIIbβ3; conditions: cited from earlier work
[14] = molecular target: T3, αIIbβ3; conditions: cited from earlier work
[15] = Clinical evaluation and platelet counts in M. fascicularis
[16] = system: hαIIb/mβ3 platelets; conditions: read-out: IC50 for hαIIb/mβ3 platelets; data not shown, n=3
[17] = cited from earlier work
[18] = system: ADP (20 µM)-induced platelet aggregation; experiment: ADP-induced platelet aggregation after IM administration to M. fascicularis; type: in vivo
[19] = system: human platelets; type: in vivo, mice; conditions: RUC-4 IV 1.5 mg/kg; laser injury, cremasteric arterioles; intravital microscopy
[20] = RUC-2 0.39 mg/kg IP, 20 µM ADP, hαIIb/mβ3 mice
[21] = RUC-4 1.2 mg/kg IM, 20 µM ADP, hαIIb/mβ3 mice
[22] = IM 1.9 and 3.85 mg/kg, non-human primates

T3 sequence (P08514 32-887 limits assumed): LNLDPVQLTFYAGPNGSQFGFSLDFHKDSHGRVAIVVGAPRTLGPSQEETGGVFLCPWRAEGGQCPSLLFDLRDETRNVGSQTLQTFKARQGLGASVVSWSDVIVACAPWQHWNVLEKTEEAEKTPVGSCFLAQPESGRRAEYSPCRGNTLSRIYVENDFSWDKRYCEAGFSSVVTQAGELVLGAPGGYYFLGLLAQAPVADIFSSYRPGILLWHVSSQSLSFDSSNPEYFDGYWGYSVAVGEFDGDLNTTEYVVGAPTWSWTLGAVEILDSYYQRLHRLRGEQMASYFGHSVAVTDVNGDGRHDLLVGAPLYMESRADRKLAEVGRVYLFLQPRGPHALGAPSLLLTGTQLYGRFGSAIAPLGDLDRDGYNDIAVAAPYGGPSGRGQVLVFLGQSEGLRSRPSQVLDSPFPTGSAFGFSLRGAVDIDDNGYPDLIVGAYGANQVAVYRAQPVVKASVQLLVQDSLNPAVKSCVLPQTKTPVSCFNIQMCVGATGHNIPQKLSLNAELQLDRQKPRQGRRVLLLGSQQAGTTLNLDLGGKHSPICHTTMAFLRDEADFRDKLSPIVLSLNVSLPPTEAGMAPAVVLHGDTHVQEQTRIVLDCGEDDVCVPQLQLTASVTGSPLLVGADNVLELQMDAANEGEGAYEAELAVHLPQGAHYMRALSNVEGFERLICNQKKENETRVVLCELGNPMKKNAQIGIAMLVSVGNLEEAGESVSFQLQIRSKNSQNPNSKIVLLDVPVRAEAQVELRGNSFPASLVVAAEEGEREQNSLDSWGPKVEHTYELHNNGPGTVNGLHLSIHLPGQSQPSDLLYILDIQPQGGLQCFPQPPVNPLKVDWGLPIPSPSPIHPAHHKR
T3 sequence (P08514 891-1039 partner limits assumed): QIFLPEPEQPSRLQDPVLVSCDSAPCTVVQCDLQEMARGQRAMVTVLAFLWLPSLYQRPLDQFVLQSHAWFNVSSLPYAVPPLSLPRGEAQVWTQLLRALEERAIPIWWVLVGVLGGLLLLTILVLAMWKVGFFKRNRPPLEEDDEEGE
T3 sequence (P05106 27-788): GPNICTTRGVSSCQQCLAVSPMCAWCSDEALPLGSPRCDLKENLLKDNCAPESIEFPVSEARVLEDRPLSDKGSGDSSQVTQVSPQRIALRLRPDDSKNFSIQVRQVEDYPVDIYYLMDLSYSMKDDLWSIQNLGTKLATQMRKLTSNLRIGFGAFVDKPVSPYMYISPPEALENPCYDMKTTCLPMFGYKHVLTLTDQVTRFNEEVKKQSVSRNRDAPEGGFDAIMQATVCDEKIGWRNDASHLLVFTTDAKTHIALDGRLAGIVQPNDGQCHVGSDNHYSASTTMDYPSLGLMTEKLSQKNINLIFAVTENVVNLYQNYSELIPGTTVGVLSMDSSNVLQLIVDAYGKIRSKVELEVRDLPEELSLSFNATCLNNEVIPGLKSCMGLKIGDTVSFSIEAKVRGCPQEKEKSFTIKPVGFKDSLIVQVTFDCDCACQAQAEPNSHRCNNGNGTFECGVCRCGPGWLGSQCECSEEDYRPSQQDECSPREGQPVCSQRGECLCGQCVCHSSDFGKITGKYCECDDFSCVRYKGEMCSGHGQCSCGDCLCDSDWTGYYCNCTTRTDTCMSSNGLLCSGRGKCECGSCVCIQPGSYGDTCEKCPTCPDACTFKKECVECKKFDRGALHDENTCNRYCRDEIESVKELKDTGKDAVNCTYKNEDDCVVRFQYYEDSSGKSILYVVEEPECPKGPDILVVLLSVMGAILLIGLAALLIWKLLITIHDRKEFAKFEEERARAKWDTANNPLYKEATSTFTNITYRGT
T2 sequence (P08514 32-887 limits assumed): as the sequence (P08514 32-887 limits assumed) above
T2 sequence (P08514 891-1039 partner limits assumed): as the sequence (P08514 891-1039 partner limits assumed) above
T2 sequence (P05106 27-788): as the sequence (P05106 27-788) above
T1 sequence (Q9QUM0 32-1033): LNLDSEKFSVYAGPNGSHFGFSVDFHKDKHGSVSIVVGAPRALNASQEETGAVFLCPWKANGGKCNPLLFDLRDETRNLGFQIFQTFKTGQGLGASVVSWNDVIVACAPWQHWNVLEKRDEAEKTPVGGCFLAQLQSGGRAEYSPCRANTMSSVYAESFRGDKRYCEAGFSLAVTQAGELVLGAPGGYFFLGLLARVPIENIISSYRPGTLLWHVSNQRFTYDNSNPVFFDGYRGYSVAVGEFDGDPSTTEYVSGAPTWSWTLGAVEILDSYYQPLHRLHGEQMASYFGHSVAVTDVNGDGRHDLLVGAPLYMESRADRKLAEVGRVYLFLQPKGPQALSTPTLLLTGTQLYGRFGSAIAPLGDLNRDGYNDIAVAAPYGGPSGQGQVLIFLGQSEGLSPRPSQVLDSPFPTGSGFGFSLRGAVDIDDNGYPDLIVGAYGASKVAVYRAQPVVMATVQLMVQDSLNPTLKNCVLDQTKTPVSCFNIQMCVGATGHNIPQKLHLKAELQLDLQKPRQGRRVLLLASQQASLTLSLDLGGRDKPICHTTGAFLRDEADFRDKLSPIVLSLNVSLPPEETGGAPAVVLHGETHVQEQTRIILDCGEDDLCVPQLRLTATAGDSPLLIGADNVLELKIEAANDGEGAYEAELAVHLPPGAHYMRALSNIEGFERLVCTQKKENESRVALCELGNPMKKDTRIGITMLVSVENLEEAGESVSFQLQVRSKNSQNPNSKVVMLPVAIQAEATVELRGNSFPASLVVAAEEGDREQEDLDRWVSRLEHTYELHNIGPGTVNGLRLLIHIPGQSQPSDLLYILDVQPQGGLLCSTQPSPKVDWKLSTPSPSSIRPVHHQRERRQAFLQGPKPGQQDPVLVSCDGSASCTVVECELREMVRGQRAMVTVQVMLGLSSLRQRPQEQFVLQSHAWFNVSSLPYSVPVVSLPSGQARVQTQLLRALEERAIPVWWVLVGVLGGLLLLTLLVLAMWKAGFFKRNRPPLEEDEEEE
T1 sequence (O54890 26-787): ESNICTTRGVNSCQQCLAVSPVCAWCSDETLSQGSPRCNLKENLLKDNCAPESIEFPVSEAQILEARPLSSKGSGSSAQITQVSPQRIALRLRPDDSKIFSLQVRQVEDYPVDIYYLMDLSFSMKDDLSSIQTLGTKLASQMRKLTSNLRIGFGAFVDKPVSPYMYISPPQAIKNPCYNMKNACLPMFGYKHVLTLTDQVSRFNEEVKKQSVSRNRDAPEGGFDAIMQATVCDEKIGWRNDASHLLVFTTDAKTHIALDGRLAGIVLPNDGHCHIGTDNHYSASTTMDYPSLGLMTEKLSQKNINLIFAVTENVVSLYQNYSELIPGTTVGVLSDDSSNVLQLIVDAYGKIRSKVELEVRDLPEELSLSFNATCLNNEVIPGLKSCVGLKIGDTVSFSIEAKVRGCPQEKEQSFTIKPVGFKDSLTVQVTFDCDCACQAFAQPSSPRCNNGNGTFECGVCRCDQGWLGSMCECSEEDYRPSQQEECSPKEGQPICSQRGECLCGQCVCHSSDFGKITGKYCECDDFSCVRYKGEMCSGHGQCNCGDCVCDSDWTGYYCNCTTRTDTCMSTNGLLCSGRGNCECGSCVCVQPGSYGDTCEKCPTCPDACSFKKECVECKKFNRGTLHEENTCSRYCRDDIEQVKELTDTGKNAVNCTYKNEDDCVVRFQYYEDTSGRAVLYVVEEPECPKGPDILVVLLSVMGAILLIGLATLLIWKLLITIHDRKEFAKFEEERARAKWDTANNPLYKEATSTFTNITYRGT
Sequence of αVβ3 (P06756 31-889 limits assumed): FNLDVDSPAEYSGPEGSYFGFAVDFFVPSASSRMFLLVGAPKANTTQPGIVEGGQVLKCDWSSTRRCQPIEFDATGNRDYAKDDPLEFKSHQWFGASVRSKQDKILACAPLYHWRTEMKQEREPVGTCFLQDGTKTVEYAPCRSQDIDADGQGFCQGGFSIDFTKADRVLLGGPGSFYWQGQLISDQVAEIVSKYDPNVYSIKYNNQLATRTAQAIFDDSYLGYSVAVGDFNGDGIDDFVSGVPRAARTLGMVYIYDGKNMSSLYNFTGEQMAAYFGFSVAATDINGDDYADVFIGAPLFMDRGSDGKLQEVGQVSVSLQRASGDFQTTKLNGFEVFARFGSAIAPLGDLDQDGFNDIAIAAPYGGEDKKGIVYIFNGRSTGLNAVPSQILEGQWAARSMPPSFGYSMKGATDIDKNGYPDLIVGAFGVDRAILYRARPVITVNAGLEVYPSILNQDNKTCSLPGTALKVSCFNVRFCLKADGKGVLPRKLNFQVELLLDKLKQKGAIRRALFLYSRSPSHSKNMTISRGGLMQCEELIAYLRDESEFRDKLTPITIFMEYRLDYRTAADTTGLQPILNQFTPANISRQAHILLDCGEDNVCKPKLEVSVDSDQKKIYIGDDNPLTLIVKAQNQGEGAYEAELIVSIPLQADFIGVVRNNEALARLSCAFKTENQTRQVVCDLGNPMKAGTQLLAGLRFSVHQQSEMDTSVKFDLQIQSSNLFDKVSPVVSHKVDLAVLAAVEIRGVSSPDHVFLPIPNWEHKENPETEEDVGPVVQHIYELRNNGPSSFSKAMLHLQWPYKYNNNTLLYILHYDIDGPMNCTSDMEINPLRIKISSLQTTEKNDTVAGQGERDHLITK
Sequence of αVβ3 (P06756 891-1048 partner limits assumed): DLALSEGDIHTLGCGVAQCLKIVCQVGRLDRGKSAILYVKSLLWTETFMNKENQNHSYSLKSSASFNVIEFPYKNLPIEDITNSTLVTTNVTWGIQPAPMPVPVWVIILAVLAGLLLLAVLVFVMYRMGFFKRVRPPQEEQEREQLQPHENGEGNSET
Sequence of αVβ3 (P05106 27-788): as the sequence (P05106 27-788) above

NCC(=O)Nc1cccc(-c2nn3c(=O)cc(N4CCNCC4)nc3s2)c1 [RUC-2]
time to maximum plasma concentration ([1]; RUC-2 IP): 15 min | Reactivity with murine platelets [2]: No | Solubility in aqueous buffer at pH 7.4 [3]: 0.068–0.092 mg/ml | mice protected from vaso-occlusion ([4]; RUC-2 3.85 mg/kg IP, 20% FeCl3 for 3 minutes, 20 minutes after dosing): 8/8 | platelet counts ([4]; RUC-2 3.85 mg/kg IP): 677±132 × 10^3 platelets per µl | Ability to prime αIIbβ3 to bind fibrinogen [5]: No | inhibition of murine αIIbβ3 [6]: does not inhibit | inhibition of binding of cells expressing αIIbβ3 to fibrinogen [7]: inhibiting the binding of cells expressing αIIbβ3 to fibrinogen | Specificity for αIIbβ3 vs αVβ3 [7]: Yes | IC50 [8]: 95 ± 20 nM | time at which return of the aggregation response begins [9, 20]: 45 min | time to complete inhibition of platelet aggregation [9, 20]: ≤ 15 min | time to complete inhibition of platelet aggregation ([9]; RUC-2 3.85 mg/kg IP, 20 µM ADP, hαIIb/mβ3 mice): ≤ 15 min | platelet aggregation at the 45 minute time point ([9]; RUC-2 3.85 mg/kg IP): complete inhibition of platelet aggregation in all animals | inhibition of binding of cells expressing αVβ3 to vitronectin [10]: inability to inhibit | IC50 [11]: ~90 nM | fold more potent than RUC-1 [11]: ~ 100 fold | Ability to Induce conformational changes in αIIbβ3 identifiable by LIBS mAb [12]: No | induction of increased binding of mAb AP5 (LIBS epitope in β3 PSI domain) [12]: did not induce increased binding | priming of the receptor to bind the ligand fibrinogen [13]: neither RUC-1 nor RUC-2 primed the receptor | conformational changes in β3 detectable by a conformation-specific monoclonal antibody or by electron microscopy [14]: nor did they induce conformational changes in β3

CCCCS(=O)(=O)N[C@@H](Cc1ccc(OCCCCC2CCNCC2)cc1)C(=O)O [tirofiban, reference compound]
priming of the receptor to bind the ligand fibrinogen [13]: unlike eptifibatide and tirofiban, neither RUC-1 nor RUC-2 primed the receptor

NCC(=O)Nc1cncc(-c2nn3c(=O)cc(N4CCNCC4)nc3s2)c1 [RUC-4]
bleeding observation ([15]; 3.85 mg/kg IM): Transient gum bleeding | clinical evaluation (tolerability) ([15]; IM 3.86, 1.93 and 1.0 mg/kg): well tolerated | platelet counts throughout the 24 hour period ([15]; IM 3.86, 1.93 and 1.0 mg/kg, 24 hour): remained stable | time to maximum plasma concentration ([1]; RUC-4 IM): 5 min | Reactivity with murine platelets [2]: No | inhibition of murine αIIbβ3 ([2]; data not shown): shares this property | fold more soluble than RUC-2 in aqueous buffer at neutral pH ([3]; neutral pH): more than 500 fold | Solubility in aqueous buffer at pH 7.4 [3]: 60–80 mg/ml | mice developing occlusion during the experiment ([4]; RUC-4 1.2 mg/kg IM, 20% FeCl3 for 3 minutes, 20 minutes after dosing): 2/11 | platelet counts ([4]; RUC-4 1.2 mg/kg IM): 674±176 × 10^3 platelets per µl | Ability to prime αIIbβ3 to bind fibrinogen [5]: No | inhibition of binding of cells expressing αIIbβ3 to fibrinogen [7]: inhibiting the binding of cells expressing αIIbβ3 to fibrinogen | Specificity for αIIbβ3 vs αVβ3 [7]: Yes | IC50 [8]: 57 ± 10 nM | time of complete inhibition of platelet aggregation [9, 21]: 5 min | time of partial return of aggregation [9, 21]: 4 h | platelet aggregation at the 45 minute time point ([9]; RUC-4 1.2 mg/kg IM): complete inhibition of platelet aggregation in all animals | inhibition of binding of cells expressing αVβ3 to vitronectin [10]: inability to inhibit | IC50 [16]: ~10 nM | Ability to Induce conformational changes in αIIbβ3 identifiable by LIBS mAb [12]: No | induction of increased binding of mAb AP5 (LIBS epitope in β3 PSI domain) [12]: did not induce increased binding | fold more soluble than RUC-2 [17]: more than 500 fold | time at which return toward normal aggregation is evident ([18]; 1.0 mg/kg IM, 20 µM ADP): 2 h | inhibition of aggregation at 15 minutes ([18]; 1.0 mg/kg IM, 15 minutes): partial | time at which aggregation response began to return to normal ([18]; 1.93 mg/kg IM, 20 µM ADP): ≤ 4.5 h | time to complete inhibition of aggregation ([18]; 1.93 mg/kg IM, 20 µM ADP): ≤ 15 min | time to complete inhibition of aggregation ([18]; 3.86 mg/kg IM, 20 µM ADP): ≤ 15 min | dose-dependent return of platelet aggregation after [18, 22]: 4.5 to 24 h | time to complete inhibition of platelet aggregation [18, 22]: ≤ 15 min | decrease in thrombus formation [19]: > 80%

eptifibatide [reference compound]
fold higher affinity for αIIbβ3 than RUC-4 as judged by IC50 for platelet aggregation [11]: more than 4 fold | priming of the receptor to bind the ligand fibrinogen [13]: unlike eptifibatide and tirofiban, neither RUC-1 nor RUC-2 primed the receptor

CCc1nn2c(=O)cc(N3CCNCC3)nc2s1 [RUC-1]
IC50 [11]: 13000 nM | priming of the receptor to bind the ligand fibrinogen [13]: neither RUC-1 nor RUC-2 primed the receptor | conformational changes in β3 detectable by a conformation-specific monoclonal antibody or by electron microscopy [14]: nor did they induce conformational changes in β3
